We go through one compound from PMC7990499, “eIF2B conformation and assembly state regulate the integrated stress response” (eLife, 2021).

The assay concerns the target T1, eIF2B decamer, eIF2B(αβδγε)2 (ISRIB pocket at the eIF2Bβ/eIF2Bδ interface) (Homo sapiens, UniProt P49770+Q9UI10).
T1 construct: gene EIF2B2; full eIF2B(αβδγε)2 decamer assembled from purified eIF2Bβγδε and eIF2Bα2; with eIF2Bβ (EIF2B2), with eIF2Bα, eIF2Bγ, eIF2Bε
The experiment in a line: fluorescence polarization competition with FAM-ISRIB; also FRET assembly of tetramers (EC50 […]), re-refined cryo-EM model. Type of assay: binding.

Compound `O=C(COc1ccc(Cl)cc1)N[C@H]1CC[C@H](NC(=O)COc2ccc(Cl)cc2)CC1` [ISRIB] registered an IC50 of 37 nM.
